Measurements reported in BindingDB's records for PubMed 32711292 (n/a, 2020).

Key:
[1] = target: T1, Maltase-glucoamylase (Homo sapiens, UniProt O43451); assay: Inhibition of alpha-glucosidase (unknown origin) by HPLC analysis
[2] = target: T1, Maltase-glucoamylase; assay: Inhibition of alpha-glucosidase (unknown origin)

T1 sequence (O43451 whole entry): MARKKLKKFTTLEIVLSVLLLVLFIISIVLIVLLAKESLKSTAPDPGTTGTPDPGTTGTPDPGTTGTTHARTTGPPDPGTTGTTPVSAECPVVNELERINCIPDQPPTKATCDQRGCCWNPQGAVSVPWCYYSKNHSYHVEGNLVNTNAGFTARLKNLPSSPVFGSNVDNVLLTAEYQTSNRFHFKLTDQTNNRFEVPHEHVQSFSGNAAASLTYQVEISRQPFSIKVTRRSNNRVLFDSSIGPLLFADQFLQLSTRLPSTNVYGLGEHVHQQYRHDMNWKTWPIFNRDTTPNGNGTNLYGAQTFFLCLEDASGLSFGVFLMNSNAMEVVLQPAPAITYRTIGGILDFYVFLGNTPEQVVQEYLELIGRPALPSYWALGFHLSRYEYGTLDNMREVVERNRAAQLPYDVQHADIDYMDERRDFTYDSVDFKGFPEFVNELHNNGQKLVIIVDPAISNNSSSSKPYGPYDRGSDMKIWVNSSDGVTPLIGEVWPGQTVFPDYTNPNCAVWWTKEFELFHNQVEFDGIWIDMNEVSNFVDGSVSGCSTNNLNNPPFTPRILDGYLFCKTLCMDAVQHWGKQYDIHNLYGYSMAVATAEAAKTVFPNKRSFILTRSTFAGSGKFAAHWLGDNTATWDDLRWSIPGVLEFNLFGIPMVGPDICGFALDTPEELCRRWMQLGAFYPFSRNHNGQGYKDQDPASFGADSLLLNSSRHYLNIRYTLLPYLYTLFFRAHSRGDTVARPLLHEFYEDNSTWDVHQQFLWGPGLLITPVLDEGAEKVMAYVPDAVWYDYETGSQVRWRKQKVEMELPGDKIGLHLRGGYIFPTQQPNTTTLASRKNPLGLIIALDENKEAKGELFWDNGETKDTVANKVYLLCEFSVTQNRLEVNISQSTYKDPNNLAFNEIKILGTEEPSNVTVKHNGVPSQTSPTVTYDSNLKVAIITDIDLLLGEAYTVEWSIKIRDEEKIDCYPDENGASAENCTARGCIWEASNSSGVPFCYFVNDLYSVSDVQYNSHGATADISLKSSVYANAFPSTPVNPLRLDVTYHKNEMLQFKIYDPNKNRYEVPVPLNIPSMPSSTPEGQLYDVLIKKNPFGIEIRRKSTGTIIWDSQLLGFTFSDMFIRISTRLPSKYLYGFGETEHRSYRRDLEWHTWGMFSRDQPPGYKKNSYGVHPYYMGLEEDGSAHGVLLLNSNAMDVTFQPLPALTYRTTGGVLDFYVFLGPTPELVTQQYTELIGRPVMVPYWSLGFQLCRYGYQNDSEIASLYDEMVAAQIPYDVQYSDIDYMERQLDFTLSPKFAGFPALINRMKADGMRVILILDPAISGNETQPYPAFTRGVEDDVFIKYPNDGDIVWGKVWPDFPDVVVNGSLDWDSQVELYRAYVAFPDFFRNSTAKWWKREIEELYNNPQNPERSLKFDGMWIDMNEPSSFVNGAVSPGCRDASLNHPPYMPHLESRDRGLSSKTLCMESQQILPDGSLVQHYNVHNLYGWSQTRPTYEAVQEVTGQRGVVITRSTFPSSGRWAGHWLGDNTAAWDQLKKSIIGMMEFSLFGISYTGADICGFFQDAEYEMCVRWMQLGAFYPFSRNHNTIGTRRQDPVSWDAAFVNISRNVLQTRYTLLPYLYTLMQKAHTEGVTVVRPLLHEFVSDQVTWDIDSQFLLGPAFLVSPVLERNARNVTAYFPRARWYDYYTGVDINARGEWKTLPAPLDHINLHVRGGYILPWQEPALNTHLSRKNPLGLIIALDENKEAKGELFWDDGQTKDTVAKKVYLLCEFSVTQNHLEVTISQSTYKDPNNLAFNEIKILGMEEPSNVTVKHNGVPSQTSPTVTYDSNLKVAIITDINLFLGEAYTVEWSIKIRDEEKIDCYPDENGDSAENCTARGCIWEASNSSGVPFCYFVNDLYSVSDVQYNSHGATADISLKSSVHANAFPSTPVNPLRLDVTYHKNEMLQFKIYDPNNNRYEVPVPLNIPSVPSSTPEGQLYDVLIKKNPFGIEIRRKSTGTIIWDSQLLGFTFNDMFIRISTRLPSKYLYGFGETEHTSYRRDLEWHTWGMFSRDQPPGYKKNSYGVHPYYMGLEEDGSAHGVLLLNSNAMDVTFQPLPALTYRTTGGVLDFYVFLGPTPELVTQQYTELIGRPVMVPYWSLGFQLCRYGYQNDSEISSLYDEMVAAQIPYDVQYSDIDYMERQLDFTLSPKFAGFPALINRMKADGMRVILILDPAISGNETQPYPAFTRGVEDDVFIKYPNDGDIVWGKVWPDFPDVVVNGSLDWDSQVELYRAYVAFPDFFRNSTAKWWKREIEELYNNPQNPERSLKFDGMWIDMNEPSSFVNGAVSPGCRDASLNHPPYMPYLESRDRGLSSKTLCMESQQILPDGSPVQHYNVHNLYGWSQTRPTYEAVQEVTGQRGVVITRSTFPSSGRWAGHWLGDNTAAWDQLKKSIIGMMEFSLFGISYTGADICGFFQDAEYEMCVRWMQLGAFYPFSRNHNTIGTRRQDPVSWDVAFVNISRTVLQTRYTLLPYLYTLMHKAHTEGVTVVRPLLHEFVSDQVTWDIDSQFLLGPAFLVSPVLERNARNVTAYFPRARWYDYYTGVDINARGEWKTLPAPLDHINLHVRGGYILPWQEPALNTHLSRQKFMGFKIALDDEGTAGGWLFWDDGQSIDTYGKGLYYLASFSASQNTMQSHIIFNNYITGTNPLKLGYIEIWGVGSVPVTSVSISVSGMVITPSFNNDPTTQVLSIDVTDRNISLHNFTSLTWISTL

SMILES	IC50 [1]	IC50 [2]
COc1ccc(CCc2cc(O)c(O)c(OC)c2)cc1	200 µM	–
COc1cc([C@@H]2Oc3cc(CCc4ccc(O)cc4)cc(OC)c3O[C@H]2CO)cc(OC)c1O	9460 µM	–
COc1cc(CCc2cccc(O)c2)cc(O)c1O	214 µM	–
COc1cc(O)cc(CCc2cccc(O)c2)c1 [Batatasin III (4)]	–	149 µM
COc1cc(O)cc(CCc2ccc(O)c(OC)c2)c1 [GIGANTOL]	–	103 µM
